Active and inactive are the calls of the source.
Columns and labels:
Streptokinase A = target: T1, Streptokinase A (Streptococcus pyogenes serotype M1, UniProt P10520); assay: viability-normalized secreted streptokinase activity reduction – plasminogen activation absorbance, OD405, dose response (AID 1914); type: functional, Streptococcus pyogenes M1 GAS;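 note: secreted streptokinase activity via plasminogen activation per viability signal from cell pellet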
T1 sequence (P10520 whole entry): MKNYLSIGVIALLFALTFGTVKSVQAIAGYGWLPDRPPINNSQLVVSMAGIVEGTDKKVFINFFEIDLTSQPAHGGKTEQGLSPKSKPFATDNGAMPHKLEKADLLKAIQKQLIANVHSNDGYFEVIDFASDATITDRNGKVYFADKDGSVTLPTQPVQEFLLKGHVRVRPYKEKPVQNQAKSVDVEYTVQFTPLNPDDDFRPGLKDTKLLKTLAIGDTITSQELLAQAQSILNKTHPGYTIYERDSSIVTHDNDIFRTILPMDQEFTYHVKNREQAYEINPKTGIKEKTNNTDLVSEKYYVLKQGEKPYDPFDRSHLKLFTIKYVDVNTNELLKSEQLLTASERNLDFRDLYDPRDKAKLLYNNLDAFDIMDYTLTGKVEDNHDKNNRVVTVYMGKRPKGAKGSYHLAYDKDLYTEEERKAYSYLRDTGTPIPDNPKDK

HEK293 [1] = assay: inhibition of NOD1-driven NF-kB reporter – cell-based, luminescence, uHTS, primary screen (AID 1578); type: functional; settings: Homo sapiens
[2] = Luminescence Cell-Based Dose Retest to Confirm Inhibitors of Cancer Stem Cells. [Related pubchem assays (depositor defined):AID2717, AID2721]; type: functional; settings: Homo sapiens
Streptococcus = assay: GAS UMAA2166 growth inhibition – luminescence, BacTiterGlo, counter-screen for streptokinase expression inhibitor project, dose response (AID 1915); type: functional, organism-based;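 note: potency for reduction of bacterial viability or growth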
[3] = target: Disintegrin and metalloproteinase domain-containing protein 17 (Homo sapiens, UniProt P78536); assay: inhibition of ADAM17 substrate cleavage – biochemical, quenched FRET substrate, counter-screen for ADAM10 exosite inhibitor project, dose response (AID 743253)
[4] = test system: Streptococcus sp. 'group A'; assay: Streptococcus pyogenes SK(-)GAS viability under kanamycin – luminescence, BacTiterGlo, confirmation, counter-screen for streptokinase expression inhibitor project, dose response (AID 1900); type: functional, organism-based
HEK293 [5] = assay: cells; type: functional, cell-based; settings: Homo sapiens
HEK293 [6] = assay: NOD2 signaling inhibitors in MDP-stimulated cells, cell-based, uHTS, luminescence (AID 2001); type: functional; settings: Homo sapiens
[7] = target: Nucleotide-binding oligomerization domain-containing protein 2 (Homo sapiens, UniProt Q9HC29); assay: inhibition of NOD2-driven NF-kB reporter – cell-based, luminescence, uHTS, HEK293 (AID 1566); type: functional
HEK293 [8] = assay: cells; type: functional, cell-based; settings: Homo sapiens; remark: listed apart in the source
HEK293 [9] = assay: cells; type: functional, cell-based; settings: Homo sapiens; remark: listed apart in the source
[10] = target: T2, E3 ubiquitin-protein ligase XIAP (Homo sapiens, UniProt P98170); assay: small molecules displacing peptide from XIAP – biochemical, IAP family, fluorescence polarization (AID 1018); type: functional
Nonstructural protein 1 = Nonstructural protein 1 (Influenza A virus, UniProt Q194T2); type: functional, Influenza A virus (A/California/07/2009(H1N1))
H9c2 = assay: cells; type: functional, cell-based; settings: Rattus norvegicus, H9c2, Myocardium;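 note: confirmatory concentration-response retest of ultra-high-throughput screening hits for modulation of myocardial damage; cell death induced by hydrogen peroxide oxidative stress; compound pretreatment for 60 min then peroxide exposure for 2 h; potency is for protecting the cells against peroxide damage rather than for killing them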
[11] = target: T2, E3 ubiquitin-protein ligase XIAP; assay: Counter Screen using XIAP-Bir3 for Chemical Antagonists of Bir1/2 domains of IAP-family anti-apoptotic proteins. [Related pubchem assays (depositor defined):AID1018, AID1449, AID1514, AID1638, AID1749, AID1750, AID488957, AID488963]
[12] = target: Kappa-type opioid receptor (Homo sapiens, UniProt P41145); assay: SAR analysis of small molecule agonists of the kappa opioid receptor via a luminescent beta-arrestin assay - Set 3. [Related pubchem assays (depositor defined):AID1777, AID1785, AID1786, AID1966, AID2133, AID2136, AID2284, AID2500]; type: functional
[13] = MIN6 cell viability loss – mouse insulinoma, cytotoxicity control, dose response (AID 2122); type: functional;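 note: confirmatory high-throughput counterscreen run to flag cytotoxic compounds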
[14] = NIH3T3 cell viability loss – ATP luminescence, mouse fibroblasts, counter-screen, dose response (AID 2010); type: functional, cell-based;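 note: cells exposed to compound for about 90 hours before reading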
[15] = decrease of insulin promoter-GFP reporter – imaging, high-content screening, mouse beta cells (AID 1628); type: functional; settings: MIN6
[16] = NIH-3T3 fibroblast cytotoxicity, dose response, cytotoxicity control, cell-based, fluorescence, Alamar Blue, secondary assay (AID 2327); type: functional;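 note: NIH-3T3 mouse fibroblasts cultured with fluconazole at 8 µg/mL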
[17] = Trypanosoma cruzi growth suppression in host cells – NIH3T3 host cells, beta-gal luminescence, confirmation (AID 2044); type: functional, cell-based;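 note: intracellular parasites grown in NIH/3T3 mouse fibroblasts as host cells; luminescent beta-galactosidase reporter signal from transgenic T. cruzi replicating inside host cells; inhibitors lower the luminescence signal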
Protein Wnt-3a = Protein Wnt-3a (Mus musculus, UniProt P27467); assay: antagonism of Wnt3a pathway luciferase reporter – Wnt-LIGHT cells, luminescence, selectivity assay for Gli-SUFU antagonist project, dose response (AID 651570); type: functional; settings: read-out: IC50_Mean;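 note: Wnt-LIGHT reporter cells stimulated with conditioned medium from Wnt3a-producing cells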
[18] = fluconazole-exposed Candida albicans growth modulators – fluorescence, retest, confirmation (AID 2467); type: functional, cell-based
[19] = target: T3, Replicative DNA helicase DnaB (Mycobacterium tuberculosis, UniProt P9WMR3); assay: DnaB intein splicing inhibitors, dose response, biochemical, cell-free fluorescence (AID 449749); type: functional
T3 sequence (P9WMR3 whole entry): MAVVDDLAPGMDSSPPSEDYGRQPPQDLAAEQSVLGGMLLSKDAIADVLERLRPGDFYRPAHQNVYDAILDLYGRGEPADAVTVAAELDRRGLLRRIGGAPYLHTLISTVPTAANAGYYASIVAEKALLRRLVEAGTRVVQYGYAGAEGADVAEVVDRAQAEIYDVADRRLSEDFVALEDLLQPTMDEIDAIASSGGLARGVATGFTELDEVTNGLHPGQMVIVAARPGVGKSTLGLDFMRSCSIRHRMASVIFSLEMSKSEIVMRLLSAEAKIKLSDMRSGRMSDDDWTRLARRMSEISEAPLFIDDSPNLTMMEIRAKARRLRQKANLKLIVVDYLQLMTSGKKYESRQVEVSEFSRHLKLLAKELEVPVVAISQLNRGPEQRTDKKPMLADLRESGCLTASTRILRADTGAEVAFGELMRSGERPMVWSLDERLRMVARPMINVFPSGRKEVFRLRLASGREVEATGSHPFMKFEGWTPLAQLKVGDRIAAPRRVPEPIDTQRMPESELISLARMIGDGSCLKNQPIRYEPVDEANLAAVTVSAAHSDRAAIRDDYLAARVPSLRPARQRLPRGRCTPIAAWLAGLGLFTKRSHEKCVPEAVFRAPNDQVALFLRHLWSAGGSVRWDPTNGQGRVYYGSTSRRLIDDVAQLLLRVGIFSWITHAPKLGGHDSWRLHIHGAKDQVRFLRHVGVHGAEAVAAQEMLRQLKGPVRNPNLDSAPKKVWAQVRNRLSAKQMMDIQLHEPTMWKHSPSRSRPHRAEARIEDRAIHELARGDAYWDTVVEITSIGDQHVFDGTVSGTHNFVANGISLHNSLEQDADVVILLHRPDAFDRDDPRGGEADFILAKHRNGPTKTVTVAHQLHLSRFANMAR

[20] = DRD fibroblast viability loss – cell-based, non-viral oncogenic, luminescence, dose response (AID 1934); type: functional; settings: Homo sapiens
BJ [21] = assay: cells; type: functional, cell-based; settings: Homo sapiens
Protein RecA = target: T4, Protein RecA (Mycobacterium tuberculosis, UniProt P9WHJ3); assay: Fluorescence Cell-Free Homogeneous Dose Retest to Identify Inhibitors of RecA-Intein Splicing Activity. [Related pubchem assays (depositor defined):AID2097, AID2223, AID489010, AID492950]; type: functional
T4 sequence (P9WHJ3 whole entry): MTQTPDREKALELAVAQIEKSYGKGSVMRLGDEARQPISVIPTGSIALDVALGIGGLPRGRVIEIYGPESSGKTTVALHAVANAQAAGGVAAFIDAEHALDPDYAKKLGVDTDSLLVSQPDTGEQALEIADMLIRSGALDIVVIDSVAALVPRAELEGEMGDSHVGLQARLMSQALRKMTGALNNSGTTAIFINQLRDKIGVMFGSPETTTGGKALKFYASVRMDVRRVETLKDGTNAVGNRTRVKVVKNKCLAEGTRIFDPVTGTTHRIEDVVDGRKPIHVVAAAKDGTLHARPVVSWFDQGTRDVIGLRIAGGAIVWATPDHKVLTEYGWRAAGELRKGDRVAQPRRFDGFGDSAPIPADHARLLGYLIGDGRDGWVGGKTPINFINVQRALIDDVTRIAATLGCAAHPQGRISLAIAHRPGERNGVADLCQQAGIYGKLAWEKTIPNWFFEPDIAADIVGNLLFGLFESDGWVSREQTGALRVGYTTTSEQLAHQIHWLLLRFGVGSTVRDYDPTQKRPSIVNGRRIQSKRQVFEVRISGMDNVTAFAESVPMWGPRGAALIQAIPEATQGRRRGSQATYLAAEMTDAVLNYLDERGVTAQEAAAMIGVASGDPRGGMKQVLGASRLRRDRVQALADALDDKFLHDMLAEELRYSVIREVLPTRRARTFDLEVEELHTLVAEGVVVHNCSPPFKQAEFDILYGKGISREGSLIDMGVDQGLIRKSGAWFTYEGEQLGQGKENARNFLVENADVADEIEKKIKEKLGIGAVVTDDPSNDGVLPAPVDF

BJ [22] = assay: BJ-TERT-LT-ST fibroblast viability loss – cell-based, RAS-independent, luminescence, dose response (AID 1935); type: functional; settings: Homo sapiens;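 note: BJ fibroblasts immortalized with TERT plus LT and ST oncogenes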
BJ [23] = assay: BJ-TERT fibroblast viability loss – cell-based, RAS-independent, luminescence, dose response (AID 1933); type: functional; settings: Homo sapiens
Cytochrome P450 2D6 = Cytochrome P450 2D6 (Homo sapiens, UniProt P10635);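 note: CYP2D6 member of a cytochrome P450 panel assay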
Cytochrome P450 2C19 = Cytochrome P450 2C19 (Homo sapiens, UniProt P33261); assay: Cytochrome panel assay with activity outcomes. Panel member name: p450-cyp2c19 Compounds with AC50 equal or less than 10 uM are considered active; type: functional
Cytochrome P450 3A4 = Cytochrome P450 3A4 (Homo sapiens, UniProt P08684);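 note: CYP3A4 tested as one member of a cytochrome P450 panel screen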
Sequence of Cytochrome P450 3A4 (P08684 whole entry): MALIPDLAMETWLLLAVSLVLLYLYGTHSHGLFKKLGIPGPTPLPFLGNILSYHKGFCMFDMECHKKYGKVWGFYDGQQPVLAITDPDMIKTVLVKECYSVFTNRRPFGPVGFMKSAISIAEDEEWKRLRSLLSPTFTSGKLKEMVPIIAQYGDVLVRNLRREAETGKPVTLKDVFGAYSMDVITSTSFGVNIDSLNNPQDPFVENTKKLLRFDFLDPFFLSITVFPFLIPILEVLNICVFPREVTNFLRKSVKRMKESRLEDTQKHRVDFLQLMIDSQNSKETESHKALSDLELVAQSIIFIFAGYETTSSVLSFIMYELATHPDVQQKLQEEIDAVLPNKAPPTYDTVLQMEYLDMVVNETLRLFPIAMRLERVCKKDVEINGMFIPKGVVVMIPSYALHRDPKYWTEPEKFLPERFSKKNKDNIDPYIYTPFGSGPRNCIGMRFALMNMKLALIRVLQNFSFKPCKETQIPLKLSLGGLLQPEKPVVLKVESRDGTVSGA

T2 sequence (P98170 whole entry): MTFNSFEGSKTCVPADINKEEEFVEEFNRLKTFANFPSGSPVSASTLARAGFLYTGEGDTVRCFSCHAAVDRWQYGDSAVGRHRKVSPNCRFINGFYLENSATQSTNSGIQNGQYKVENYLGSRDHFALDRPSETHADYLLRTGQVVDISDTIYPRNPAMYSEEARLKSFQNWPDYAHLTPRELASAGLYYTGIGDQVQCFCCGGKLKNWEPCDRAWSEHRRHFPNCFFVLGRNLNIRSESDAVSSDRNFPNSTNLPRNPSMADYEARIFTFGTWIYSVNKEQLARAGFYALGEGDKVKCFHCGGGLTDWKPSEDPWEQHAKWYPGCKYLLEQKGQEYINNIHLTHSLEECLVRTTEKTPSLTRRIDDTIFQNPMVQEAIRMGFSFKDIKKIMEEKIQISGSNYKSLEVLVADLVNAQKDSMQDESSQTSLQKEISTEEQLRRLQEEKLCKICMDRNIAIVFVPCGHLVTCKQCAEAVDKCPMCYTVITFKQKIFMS
Sequence of Nucleotide-binding oligomerization domain-containing protein 2 (Q9HC29 whole entry, the tested form may be a part): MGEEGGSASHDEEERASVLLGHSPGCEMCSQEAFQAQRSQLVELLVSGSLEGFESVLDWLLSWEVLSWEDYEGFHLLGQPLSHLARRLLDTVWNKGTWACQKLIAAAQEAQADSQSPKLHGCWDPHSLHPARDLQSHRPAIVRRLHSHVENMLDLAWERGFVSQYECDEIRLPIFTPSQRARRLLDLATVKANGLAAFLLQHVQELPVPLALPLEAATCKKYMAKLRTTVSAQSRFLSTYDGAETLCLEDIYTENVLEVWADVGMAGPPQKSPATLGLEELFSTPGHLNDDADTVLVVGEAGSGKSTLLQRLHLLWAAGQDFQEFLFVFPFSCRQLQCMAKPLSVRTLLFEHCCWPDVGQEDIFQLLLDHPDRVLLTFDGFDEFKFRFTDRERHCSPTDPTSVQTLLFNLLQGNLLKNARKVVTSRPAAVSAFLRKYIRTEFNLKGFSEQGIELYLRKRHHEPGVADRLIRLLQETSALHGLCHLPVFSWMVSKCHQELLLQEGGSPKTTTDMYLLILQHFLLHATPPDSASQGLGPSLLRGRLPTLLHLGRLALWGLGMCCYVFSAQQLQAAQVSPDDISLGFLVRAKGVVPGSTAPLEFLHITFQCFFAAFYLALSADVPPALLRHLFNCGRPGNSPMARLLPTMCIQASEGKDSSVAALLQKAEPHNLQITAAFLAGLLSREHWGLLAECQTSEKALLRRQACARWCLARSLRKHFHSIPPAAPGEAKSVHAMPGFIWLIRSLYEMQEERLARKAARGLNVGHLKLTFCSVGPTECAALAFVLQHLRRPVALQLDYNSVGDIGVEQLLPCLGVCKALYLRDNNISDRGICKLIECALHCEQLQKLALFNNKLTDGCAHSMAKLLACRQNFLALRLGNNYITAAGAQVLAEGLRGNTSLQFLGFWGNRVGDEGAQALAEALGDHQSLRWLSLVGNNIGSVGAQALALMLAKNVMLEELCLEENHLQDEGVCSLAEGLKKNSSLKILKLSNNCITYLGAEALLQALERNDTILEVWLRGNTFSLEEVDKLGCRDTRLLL
Sequence of Nonstructural protein 1 (Q194T2 whole entry): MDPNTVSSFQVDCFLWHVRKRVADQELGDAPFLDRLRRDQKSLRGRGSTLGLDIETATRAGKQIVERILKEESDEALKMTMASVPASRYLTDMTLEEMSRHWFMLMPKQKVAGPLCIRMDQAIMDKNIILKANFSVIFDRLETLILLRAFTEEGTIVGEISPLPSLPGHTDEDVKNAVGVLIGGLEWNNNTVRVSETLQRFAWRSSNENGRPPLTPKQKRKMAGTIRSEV
Sequence of Cytochrome P450 2C19 (P33261 whole entry): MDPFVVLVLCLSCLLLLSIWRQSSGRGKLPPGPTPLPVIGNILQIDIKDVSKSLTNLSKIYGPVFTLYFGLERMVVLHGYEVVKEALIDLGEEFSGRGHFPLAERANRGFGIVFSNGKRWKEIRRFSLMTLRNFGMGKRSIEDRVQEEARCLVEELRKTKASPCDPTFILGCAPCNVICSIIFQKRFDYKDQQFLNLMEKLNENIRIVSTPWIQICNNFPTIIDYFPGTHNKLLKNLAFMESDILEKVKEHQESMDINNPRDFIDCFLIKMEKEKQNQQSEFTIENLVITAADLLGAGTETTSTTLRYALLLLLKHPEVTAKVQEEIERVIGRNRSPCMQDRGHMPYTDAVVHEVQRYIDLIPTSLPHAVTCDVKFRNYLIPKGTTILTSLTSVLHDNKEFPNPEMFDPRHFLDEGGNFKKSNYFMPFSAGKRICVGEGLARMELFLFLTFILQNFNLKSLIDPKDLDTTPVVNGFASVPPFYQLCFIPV
Sequence of Cytochrome P450 2D6 (P10635 whole entry): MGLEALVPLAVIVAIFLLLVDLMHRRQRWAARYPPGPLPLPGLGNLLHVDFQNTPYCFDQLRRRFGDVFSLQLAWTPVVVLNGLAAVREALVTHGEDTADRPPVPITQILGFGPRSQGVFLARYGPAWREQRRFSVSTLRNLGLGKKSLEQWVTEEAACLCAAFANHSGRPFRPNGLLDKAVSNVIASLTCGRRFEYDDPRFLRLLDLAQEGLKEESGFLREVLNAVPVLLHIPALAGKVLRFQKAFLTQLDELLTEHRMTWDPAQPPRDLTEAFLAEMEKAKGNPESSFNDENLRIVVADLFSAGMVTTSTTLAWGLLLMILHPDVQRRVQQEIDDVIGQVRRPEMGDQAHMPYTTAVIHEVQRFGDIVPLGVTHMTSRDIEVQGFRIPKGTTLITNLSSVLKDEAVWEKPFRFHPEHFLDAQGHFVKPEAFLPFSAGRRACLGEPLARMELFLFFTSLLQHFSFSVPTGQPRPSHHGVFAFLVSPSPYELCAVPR
Sequence of Disintegrin and metalloproteinase domain-containing protein 17 (P78536 whole entry, the tested form may be a part): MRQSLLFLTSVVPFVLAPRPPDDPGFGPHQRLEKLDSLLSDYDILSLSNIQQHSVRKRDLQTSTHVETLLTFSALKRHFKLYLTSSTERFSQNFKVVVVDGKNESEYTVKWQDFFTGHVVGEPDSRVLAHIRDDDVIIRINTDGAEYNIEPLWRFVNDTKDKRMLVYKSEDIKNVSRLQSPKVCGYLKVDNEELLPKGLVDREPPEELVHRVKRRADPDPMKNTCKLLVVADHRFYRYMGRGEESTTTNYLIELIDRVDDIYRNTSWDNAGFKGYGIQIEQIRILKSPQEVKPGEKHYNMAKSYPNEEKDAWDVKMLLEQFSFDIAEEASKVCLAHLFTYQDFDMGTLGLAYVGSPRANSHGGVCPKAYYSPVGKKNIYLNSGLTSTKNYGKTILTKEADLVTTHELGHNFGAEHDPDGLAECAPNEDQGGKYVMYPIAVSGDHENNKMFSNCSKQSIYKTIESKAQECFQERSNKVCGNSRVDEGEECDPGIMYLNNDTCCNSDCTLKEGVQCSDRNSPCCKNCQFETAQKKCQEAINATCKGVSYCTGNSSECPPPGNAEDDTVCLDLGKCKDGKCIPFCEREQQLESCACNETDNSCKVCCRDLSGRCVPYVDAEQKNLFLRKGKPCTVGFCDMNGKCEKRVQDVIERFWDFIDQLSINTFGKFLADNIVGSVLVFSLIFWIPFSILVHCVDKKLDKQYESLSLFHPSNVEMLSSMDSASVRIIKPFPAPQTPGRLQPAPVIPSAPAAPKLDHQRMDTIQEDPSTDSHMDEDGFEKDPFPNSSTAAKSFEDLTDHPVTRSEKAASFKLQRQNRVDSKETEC
Sequence of Protein Wnt-3a (P27467 whole entry): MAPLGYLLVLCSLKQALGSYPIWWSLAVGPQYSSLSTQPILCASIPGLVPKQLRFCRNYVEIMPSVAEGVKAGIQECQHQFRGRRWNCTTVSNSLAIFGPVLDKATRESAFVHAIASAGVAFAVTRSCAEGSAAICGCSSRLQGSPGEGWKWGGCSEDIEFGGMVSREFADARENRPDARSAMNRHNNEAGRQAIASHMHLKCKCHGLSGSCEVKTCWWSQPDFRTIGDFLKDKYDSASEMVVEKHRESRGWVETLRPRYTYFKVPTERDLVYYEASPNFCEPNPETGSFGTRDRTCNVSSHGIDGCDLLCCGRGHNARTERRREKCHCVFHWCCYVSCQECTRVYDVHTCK
Sequence of Kappa-type opioid receptor (P41145 whole entry): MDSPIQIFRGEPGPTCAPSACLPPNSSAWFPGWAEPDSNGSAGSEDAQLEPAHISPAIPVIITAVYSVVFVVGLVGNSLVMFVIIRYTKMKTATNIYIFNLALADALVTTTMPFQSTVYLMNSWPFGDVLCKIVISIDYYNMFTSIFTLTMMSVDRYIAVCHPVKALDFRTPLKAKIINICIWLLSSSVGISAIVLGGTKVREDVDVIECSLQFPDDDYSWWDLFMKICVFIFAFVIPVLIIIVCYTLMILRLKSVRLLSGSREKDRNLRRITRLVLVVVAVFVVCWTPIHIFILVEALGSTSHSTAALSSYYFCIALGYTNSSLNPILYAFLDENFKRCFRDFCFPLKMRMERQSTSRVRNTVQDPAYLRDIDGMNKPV

COc1ccc(-c2c[nH]nc2-c2ccc(OCc3ccccc3)cc2O)cc1
EC50 (Streptokinase A): > 150 µM (inconclusive)
EC50 (HEK293 [1]): 12.2 µM (active)
AC50 [2]: 6.84 µM (active)
EC50 (Streptococcus): 17.7 µM (active)
IC50 [3]: > 69.5 µM (inactive)
EC50 [4]: 2.68 µM (active)
IC50 (HEK293 [5]): > 20 µM (inactive)
IC50 (HEK293 [6]): 3.21 µM (active)
EC50 [7]: 2.22 µM (active)
IC50 (HEK293 [8]): > 20 µM (inactive)
IC50 (HEK293 [9]): 1.84 µM (active)

O=C(CN1C(=O)CCC1=O)Nc1nc(-c2ccccn2)cs1
IC50 [10]: > 100 µM (not active)
IC50 (Nonstructural protein 1): 4.83 µM (active)
IC50 (H9c2): 33.4 µM (inactive)
IC50 [11]: > 100 µM (inactive)

Clc1ccc(CSc2nnc(-c3ccccn3)n2Cc2ccccc2Cl)cc1Cl
EC50 [12]: 11.8 µM (inactive)

CC(C)CCOC(=O)C[N+](C)(C)CCOC1CC2CCC1(C)C2(C)C (stereo not drawn)
IC50 [13]: < 0.25 µM (active)
EC50 [14]: > 60 µM (not active)
IC50 [15]: 0.643 µM (active)
EC50 [16]: > 160 µM (inactive)
EC50 [17]: 0.286 µM (active)
IC50 (Protein Wnt-3a): 5.09 µM (active)
EC50 [18]: 1.3 µM (active)

Cc1cccc(CN2CCN(C(=O)CCl)CC2)c1
AC50 [19]: 21.4 µM (active)
EC50 [20]: 31.2 µM (active)
EC50 (BJ [21]): > 150 µM (not active)
EC50 (HEK293 [1]): > 20 µM (inactive)
EC50 (Protein RecA): 20.2 µM (active)
IC50 (HEK293 [5]): > 20 µM (inactive)
EC50 (BJ [22]): > 150 µM (inconclusive)
IC50 (HEK293 [6]): 16.7 µM (inactive)
EC50 [7]: > 20 µM (inactive)
IC50 (HEK293 [8]): > 20 µM (inactive)
IC50 (HEK293 [9]): 13.9 µM (active)
EC50 (BJ [23]): 9.64 µM (inconclusive)

Cc1ccc(NC(=O)NNC(=O)C2CC(c3cccnc3)=NO2)cc1 (stereo not drawn)
AC50 (Cytochrome P450 2D6): inconclusive
AC50 (Cytochrome P450 2C19): inconclusive

O=C(c1cccc(F)c1)N1CCC2(CCN(Cc3nccs3)CC2)CC1
AC50 (Cytochrome P450 3A4): inconclusive
